Experimental data reported in US5688821A, “Unsaturated fatty acyl derivatives of 2-aminothiazoleacetic acid and their salts as inhibitors of phospholipase A2 derived from human sources” (American Home Products Corporation, priority 1996, dated 1997).
Structures can show the parent of a compound that is named as a salt. Where two headings read alike, the source gives them in different places.

Key:
Human Platelet PLA2 = target: T1, Human Platelet PLA2 (Homo sapiens, UniProt P14555); assay: Inhibition of PLA2 derived from human platelets (HP), arachidonic acid release from 3H-AA E. coli substrate; assay type: biochemical; settings: for inhibition at 50 µM: Drug Concentration 50 μM; for inhibition at 10 µM / % Inhibition HP: Drug Concentration 10 μM, Example 8: average of two runs; for % Inhibition HP: 10 µM
T1 construct: semi-purified human platelet acid extract PLA2; from tissue; host or cells: human platelets (semi-purified acid extract)
T1 sequence (P14555 21-144): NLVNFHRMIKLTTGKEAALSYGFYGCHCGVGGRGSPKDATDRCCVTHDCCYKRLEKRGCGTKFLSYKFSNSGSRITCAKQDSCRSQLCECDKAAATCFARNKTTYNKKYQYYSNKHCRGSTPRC
Description: (§1) The compounds of the invention are tested in an in vitro isolated phospholipase A2 assay to determine the ability of the test compounds to inhibit the release of arachidonic acid from an arachidonic acid-containing substrate by the action of phospholipase A enzyme from two human sources.
(§2) 1. INHIBITION OF PLA2 DERIVED FROM HUMAN PLATELETS AND HUMAN SYNOVIAL FLUID
(§3) This assay is carried out as follows:
(§4) Into a 15 mL polypropylene tube are added the following: […]
(§5) *pre-incubate at room temperature 30 min prior to substrate addition.
(§6) ^1. Prepared by adding 2 mL deionized and distilled water to 2 mL ^3 H-arachidonate labeled E. coli (lower count), to which is added 1 mL of ^3 H-arachidonate labeled E. coli (higher count) to yield a total of […] substrate (containing 1000 nmoles phospholipid, PL).
(§7) ^2 Stock 0.1M CaCl2 required for enzyme activity.
(§8) ^3 Stock 0.5M Trisma-Base. Stock 0.5M Trisma-HCl. Adjust pH to 7.5 (optimum for enzyme).
(§9) ^4 Deionized and distilled water.
(§10) ^5 Stock 10 mM prepared in dimethyl sulfoxide. Make 1:2 dilution with dimethyl sulfoxide and add 1 μL to 100 μL assay tube.
^6 Two human PLA2 enzymes are used:
(a) semi-purified human platelet acid extract PLA2 (in 10 mM sodium acetate buffer, pH 4.5). Remove protein precipitate by centrifugation at about 2200 rpm for 10 minutes. […]
(§11) Incubate the […] reaction mixture for 10 minutes at 37° C. in a shaking water bath. The reaction is terminated by the addition of 2 mL tetrahydrofuran, followed by vortexing. NH2 columns ([…]--Analytichem International) are conditioned with 0.5 mL tetrahydrofuran followed by 0.5 mL tetrahydrofuran/water (2 mL:0.1 mL, v/v).
(§12) The sample is loaded onto the columns and slowly dram through them. The hydrolyzed arachidonic acid retained in the columns is eluted therefrom with 1 mL tetrahydrofuran/glacial acetic acid (2%). The arachidonic acid is transferred to scintillation vials and quantitated by β-counting analysis. A "total counts" sample is prepared by pipetting 25 μl, ^3 H-arachidonate E. coli directly into a scintillation vial to which is added 1 mL tetrahydrofuran. 10 mL aquasol (scintillation cocktail) is added to all samples.

Human Synovial PLA2 = target: T2, Human Synovial PLA2 (Homo sapiens, UniProt P14555); assay: Inhibition of PLA2 derived from human synovial fluid (HSF), arachidonic acid release from 3H-AA E. coli substrate; assay type: biochemical; settings: for inhibition at 50 µM: Drug Concentration 50 μM; for inhibition at 10 µM / % Inhibition HSF: Drug Concentration 10 μM, Example 8: average of two runs; for % Inhibition HSF: 10 µM
T2 construct: Purified human synovial fluid; from tissue; host or cells: human synovial fluid (purified)
T2 sequence (P14555 21-144): T1 sequence (P14555 21-144)
Description: as §1, §2, §3, §4, §5, §6, §7, §8, §9, §10
^6 Two human PLA2 enzymes are used: […]
(b) Purified human synovial fluid.
as §11, §12

[1] = system: paw edema induced by the exogenous administration of PLA2; assay: Murine paw edema assay (edema induced by exogenous PLA2); assay type: in vivo, mouse (male CD-1); settings: for % change paw edema: 30 mg/kg i.p., * p ≤0.05; for % change paw edema (in words): dose and time not given
[2] = system: TPA-induced ear edema in mouse ears; assay: TPA-induced dermal inflammation in mouse ears; assay type: in vivo, mouse (female Swiss Webster); settings: Topical, 30 min after TPA, measured 4 h after TPA, * p ≤0.05
Description: 2. TPA-induced dermal inflammation in mouse ears
Female Swiss Webster mice (Buckshire; 8 weeks old) were divided into groups of six. Tetradecanoylphorbol acetate CrPA) was dissolved in acetone at concentrations of 50 mg/ml and 200 μg/ml, respectively. Each mouse received 4 μg/ear of TPA on the right ear. These suboptimal doses of phlogistics were applied by an automatic pipette in 10 μl volumes to both the inner and outer surfaces of the ear. The left ear (control) received acetone or vehicle. […] Drags were given 30 min. after treatment (+30 min) with TPA. Edema measurements were taken with an Oditest calipers. The thickness of the right and left ears were usually measured in traits of 0.01 mm 4 h after TPA application. Ear edema was calculated by subtracting the thickness of the left ear (vehicle control) from right ear (treated ear).

[3] = test compounds, value in parentheses, Table 1, read-out: (IC50) HP
[4] = test compounds, value in parentheses, Table 1, read-out: (IC50) HSF

Question: What does the source list for `CCCCC/C=C\C/C=C\C/C=C\C/C=C\CCCC(=O)O` [Arachidonic Acid, reference compound]?
Answer: IC50 (Human Platelet PLA2; standard drugs, read-out: IC50 Human Platelet PLA2 (standard drugs)): 8.6 µM; IC50 (Human Synovial PLA2; standard drugs, read-out: IC50 Human Synovial PLA2 (standard drugs)): 3200 nM

Question: What does the source list for `CCCCCCCC/C=C\CCCCCCCC(=O)Nc1nc(CC(=O)O)cs1` [Example 1, 2[((Z)-1-Oxo-9-octadecenyl)amino]-4-thiazoleacetic acid]?
Answer: inhibition at 50 µM (Human Platelet PLA2): 57.5%; IC50 (Human Platelet PLA2; [3]): 27.9 µM; inhibition at 50 µM (Human Synovial PLA2): 96%; IC50 (Human Synovial PLA2; [4]): 1700 nM

Question: Which results are given for `CCCCCCCC/C=C\CCCCCCCC(=O)Nc1nc(CC(=O)O)cs1` [Example 2, 2-[((Z)-1-Oxo-9-octadecenyl)amino]-4-thizaoleacetic acid, tromethamine (2-amino-2-hydroxymethyl)-1,3-propanediol) salt]?
Answer: inhibition at 10 µM (Human Platelet PLA2): 36%; inhibition at 10 µM (Human Synovial PLA2): 25.9%

Question: What does the source list for `CCCCCCCC/C=C/CCCCCCCC(=O)Nc1nc(CC(=O)O)cs1` [Example 3, 2-[((E)-1-Oxo-9-octadecenyl)amino]-4-thiazoleacetic acid]?
Answer: inhibition at 50 µM (Human Platelet PLA2): 70%; IC50 (Human Platelet PLA2; [3]): 25.7 µM; % change paw edema ([1]; 10 min after PLA2): -33%; % change paw edema ([1]; 30 min after PLA2): -43%; % Change Edema ([2]; 100 mg/ear (so in the source)): -20%; inhibition at 50 µM (Human Synovial PLA2): 81.7%; IC50 (Human Synovial PLA2; [4]): 2100 nM

Question: How did the “% Inhibition HP” value (Human Platelet PLA2) turn out when `CCCCCCCCC#CCCCCCCCC(=O)Nc1nc(CC(=O)O)cs1` [Example 4, 2-[(1-Oxo-9-octadecynyl)amino]-4-thiazoleacetic acid] was run?
Answer: 8.9%

Question: What about the “% Inhibition HSF” value (Human Synovial PLA2) of the same molecule?
Answer: 42.5%

Question: `CCCCCCCCC#CCCCCCCCC(=O)Nc1nc(CC(=O)O)cs1` [Example 5, 2-[(1-Oxo-9-octadecynyl)amino]-4-thiazoleacetic acid, tromethamine salt] was tested. Which “% Inhibition HP” value (Human Platelet PLA2) did it give?
Answer: 26%

Question: And the “% Inhibition HSF” value (Human Synovial PLA2)?
Answer: 66%

Question: How did the inhibition at 10 µM (Human Platelet PLA2) turn out when `CCCCC/C=C/C/C=C/CCCCCCCC(=O)Nc1nc(CC(=O)O)cs1` [Example 6] was run?
Answer: 74.6%

Question: And the inhibition at 10 µM (Human Synovial PLA2)?
Answer: 84.8%

Question: Which results are given for `CC/C=C\C/C=C\C/C=C\CCCCCCCC(=O)Nc1nc(CC(=O)O)cs1` [Example 7, 2-[((Z,Z,Z)-1-Oxo-9,12,15-octadecatrienyl)amino]-4-thiazole-acetic acid]?
Answer: inhibition at 10 µM (Human Platelet PLA2): 0.5%; inhibition at 10 µM (Human Synovial PLA2): 38.5%

Question: For `CCCC/C=C\CCCCCCCC(=O)Nc1nc(CC(=O)O)cs1` [Example 8, 2-[((Z)-1-Oxo-9-tetradecenyl)amino]-4-thiazoleacetic Acid], which inhibition at 10 µM (Human Platelet PLA2) is on record?
Answer: 65.6%

Question: And the “% Inhibition HSF” value (Human Synovial PLA2)?
Answer: 2%

Question: Which “% Inhibition HP” value (Human Platelet PLA2) does the source give for `CCCC/C=C\CCCCCCCC(=O)Nc1nc(CC(=O)O)cs1` [Example 9, 2[((Z)-1-Oxo-9-tetradecenyl)amino]-4-thiazoleacetic acid, tromethamine salt] here?
Answer: 74%

Question: And the “% Inhibition HSF” value (Human Synovial PLA2)?
Answer: 26.9%

Question: Which inhibition at 50 µM (Human Platelet PLA2) does the source give for `CCCCC/C=C\C/C=C\CCCCCCCCCC(=O)Nc1nc(CC(=O)O)cs1` [Example 10, 2[((Z,Z)-1-Oxo-11,14-eicosadienyl)amino]-4-thiazoleacetic acid] here?
Answer: 82.7%

Question: What about the inhibition at 50 µM (Human Synovial PLA2) of the same molecule?
Answer: 86.3%

Question: `CC1=C(CC/C(C)=C/CC/C(C)=C/CCC2=CC(=O)OC2O)C(C)(C)CCC1` (centres unmarked) [Luffariellolide, reference compound] was tested. Which “% change paw edema (in words)” value [1] did it give?
Answer: Inactive

Question: What does the source list for `c1ccc2nc(COc3cccc4ccccc34)ccc2c1` [WY-47288, reference compound]?
Answer: % change paw edema (in words) [1]: Inactive; % Change Edema ([2]; 1 mg/ear): -40%
